Measured values reported in the NIST ThermoML archive (doi:10.1021/je060137q).

How the values were obtained:
[1] = for mass density: 101 kPa, Liquid; for surface tension liquid-gas: Pendant drop shape
[2] = xn = mol fraction of the nth substance listed; details: for mass density: 101 kPa, Liquid; for surface tension liquid-gas: Pendant drop shape

CCOC(=O)OCC [diethyl carbonate]
[1]
Details	mass density [kg/m3]
298.15 K	969.12
313.15 K	952.15

Cc1cc(C)cc(C)c1 [1,3,5-trimethylbenzene]
[1]
Details	mass density [kg/m3]	surface tension liquid-gas [mN/m]
298.15 K	861.04	28.09
313.15 K	848.73	26.82

Cc1ccc(C)c(C)c1 [1,2,4-trimethylbenzene]
[1]
Details	mass density [kg/m3]	surface tension liquid-gas [mN/m]
298.15 K	871.64	29.29
313.15 K	859.5	27.67

CCOC(=O)OCC [diethyl carbonate] + Cc1cc(C)cc(C)c1
[2], x1 = 1
Details	mass density [kg/m3]
298.15 K	969.12
313.15 K	952.15

Cc1ccc(C)c(C)c1 [1,2,4-trimethylbenzene] + CCOC(=O)OCC
[2]
Details	mass density [kg/m3]	surface tension liquid-gas [mN/m]
298.15 K, x2 = 0	871.64	29.29
298.15 K, x2 = 0.0501	875.81	–
298.15 K, x2 = 0.1005	880.1	28.85
298.15 K, x2 = 0.1497	884.28	–
298.15 K, x2 = 0.1994	888.62	28.41
298.15 K, x2 = 0.2518	893.23	–
298.15 K, x2 = 0.2998	897.55	27.98
298.15 K, x2 = 0.3499	902.17	–
298.15 K, x2 = 0.4001	–	27.58
298.15 K, x2 = 0.4004	906.89	–
298.15 K, x2 = 0.4496	911.54	–
298.15 K, x2 = 0.5	916.38	27.23
298.15 K, x2 = 0.5494	921.22	–
298.15 K, x2 = 0.5997	926.24	–
298.15 K, x2 = 0.6497	931.3	–
298.15 K, x2 = 0.6998	936.41	–
298.15 K, x2 = 0.7505	941.72	–
298.15 K, x2 = 0.8001	947	–
298.15 K, x2 = 0.8499	952.36	–
298.15 K, x2 = 0.9	957.82	–
298.15 K, x2 = 0.95	963.45	–
313.15 K, x2 = 0	859.5	27.67
313.15 K, x2 = 0.0508	863.46	–
313.15 K, x2 = 0.1	–	27.16
313.15 K, x2 = 0.1005	867.43	–
313.15 K, x2 = 0.1486	871.36	–
313.15 K, x2 = 0.2002	–	26.69
313.15 K, x2 = 0.2012	875.71	–
313.15 K, x2 = 0.2507	879.88	–
313.15 K, x2 = 0.3005	–	26.23
313.15 K, x2 = 0.3007	884.17	–
313.15 K, x2 = 0.352	888.61	–
313.15 K, x2 = 0.3997	–	25.81
313.15 K, x2 = 0.4006	892.94	–
313.15 K, x2 = 0.4499	897.37	–
313.15 K, x2 = 0.4981	901.79	–
313.15 K, x2 = 0.5001	–	25.49
313.15 K, x2 = 0.5498	906.6	–
313.15 K, x2 = 0.597	911.06	–
313.15 K, x2 = 0.6481	915.93	–
313.15 K, x2 = 0.699	920.93	–
313.15 K, x2 = 0.7499	925.98	–
313.15 K, x2 = 0.8002	931.06	–
313.15 K, x2 = 0.8473	935.87	–
313.15 K, x2 = 0.9001	941.45	–
313.15 K, x2 = 0.9499	946.74	–

CCOC(=O)OCC [diethyl carbonate] + Cc1ccc(C)c(C)c1
[2], x1 = 1
Details	mass density [kg/m3]
298.15 K	969.12
313.15 K	952.15

COC(=O)OC [dimethyl carbonate] + Cc1cc(C)cc(C)c1
[2], x1 = 1
Details	mass density [kg/m3]
298.15 K	1062.97
313.15 K	1044.63

Cc1ccc(C)c(C)c1 [1,2,4-trimethylbenzene] + COC(=O)OC
[2]
Details	mass density [kg/m3]	surface tension liquid-gas [mN/m]
298.15 K, x2 = 0	871.64	29.29
298.15 K, x2 = 0.0499	876.93	–
298.15 K, x2 = 0.0999	882.55	28.93
298.15 K, x2 = 0.15	888.53	–
298.15 K, x2 = 0.2	894.76	28.64
298.15 K, x2 = 0.2498	901.22	–
298.15 K, x2 = 0.2995	908.07	–
298.15 K, x2 = 0.3001	–	28.34
298.15 K, x2 = 0.3502	915.53	–
298.15 K, x2 = 0.4001	923.26	28.21
298.15 K, x2 = 0.45	931.35	–
298.15 K, x2 = 0.5	939.96	28.08
298.15 K, x2 = 0.55	949.04	–
298.15 K, x2 = 0.5998	958.57	–
298.15 K, x2 = 0.65	968.9	–
298.15 K, x2 = 0.6999	979.71	–
298.15 K, x2 = 0.7497	991.22	–
298.15 K, x2 = 0.7997	1003.68	–
298.15 K, x2 = 0.8501	1017.1	–
298.15 K, x2 = 0.8999	1031.25	–
298.15 K, x2 = 0.9498	1046.57	–
313.15 K, x2 = 0	859.5	27.67
313.15 K, x2 = 0.0505	864.72	–
313.15 K, x2 = 0.1008	–	27.23
313.15 K, x2 = 0.1012	870.23	–
313.15 K, x2 = 0.15	875.75	–
313.15 K, x2 = 0.1999	–	26.82
313.15 K, x2 = 0.2008	881.92	–
313.15 K, x2 = 0.2491	887.96	–
313.15 K, x2 = 0.2996	–	26.51
313.15 K, x2 = 0.3003	894.87	–
313.15 K, x2 = 0.3498	901.76	–
313.15 K, x2 = 0.3991	–	26.29
313.15 K, x2 = 0.401	909.43	–
313.15 K, x2 = 0.4509	917.26	–
313.15 K, x2 = 0.5	–	26.11
313.15 K, x2 = 0.5008	925.59	–
313.15 K, x2 = 0.5507	934.32	–
313.15 K, x2 = 0.5998	943.46	–
313.15 K, x2 = 0.65	953.33	–
313.15 K, x2 = 0.6995	963.85	–
313.15 K, x2 = 0.7505	975.23	–
313.15 K, x2 = 0.7994	986.99	–
313.15 K, x2 = 0.8502	1000	–
313.15 K, x2 = 0.8976	1013.08	–
313.15 K, x2 = 0.9504	1028.72	–

Cc1cc(C)cc(C)c1 [1,3,5-trimethylbenzene] + CCOC(=O)OCC
[2]
Details	mass density [kg/m3]	surface tension liquid-gas [mN/m]
298.15 K, x2 = 0	861.04	28.09
298.15 K, x2 = 0.05	865.43	–
298.15 K, x2 = 0.1	869.94	27.71
298.15 K, x2 = 0.15	874.61	–
298.15 K, x2 = 0.1999	879.3	27.37
298.15 K, x2 = 0.2501	884.12	–
298.15 K, x2 = 0.2999	889.01	27.01
298.15 K, x2 = 0.3498	893.96	–
298.15 K, x2 = 0.3999	899.08	26.76
298.15 K, x2 = 0.4499	904.28	–
298.15 K, x2 = 0.5006	909.64	26.56
298.15 K, x2 = 0.5497	914.93	–
298.15 K, x2 = 0.6001	920.47	–
298.15 K, x2 = 0.6498	926.07	–
298.15 K, x2 = 0.7007	931.9	–
298.15 K, x2 = 0.7495	937.62	–
298.15 K, x2 = 0.8004	943.71	–
298.15 K, x2 = 0.849	949.64	–
298.15 K, x2 = 0.9001	956.06	–
298.15 K, x2 = 0.9501	962.49	–
313.15 K, x2 = 0	848.73	26.82
313.15 K, x2 = 0.0502	852.95	–
313.15 K, x2 = 0.0997	–	26.36
313.15 K, x2 = 0.1001	857.31	–
313.15 K, x2 = 0.1497	861.7	–
313.15 K, x2 = 0.1995	–	25.95
313.15 K, x2 = 0.201	866.26	–
313.15 K, x2 = 0.248	870.64	–
313.15 K, x2 = 0.2987	875.33	–
313.15 K, x2 = 0.2997	–	25.57
313.15 K, x2 = 0.3417	879.45	–
313.15 K, x2 = 0.4001	–	25.22
313.15 K, x2 = 0.4009	885.2	–
313.15 K, x2 = 0.4487	889.94	–
313.15 K, x2 = 0.5001	–	24.93
313.15 K, x2 = 0.5005	895.18	–
313.15 K, x2 = 0.5501	900.3	–
313.15 K, x2 = 0.5995	905.52	–
313.15 K, x2 = 0.651	911.05	–
313.15 K, x2 = 0.6995	916.4	–
313.15 K, x2 = 0.7495	921.97	–
313.15 K, x2 = 0.8004	927.84	–
313.15 K, x2 = 0.8501	933.7	–
313.15 K, x2 = 0.9001	939.69	–
313.15 K, x2 = 0.9501	945.76	–

COC(=O)OC [dimethyl carbonate] + Cc1ccc(C)c(C)c1
[2], x1 = 1
Details	mass density [kg/m3]
298.15 K	1062.97
313.15 K	1044.63

Cc1cc(C)cc(C)c1 [1,3,5-trimethylbenzene] + COC(=O)OC
[2]
Details	mass density [kg/m3]	surface tension liquid-gas [mN/m]
298.15 K, x2 = 0	861.04	28.09
298.15 K, x2 = 0.054	867.08	–
298.15 K, x2 = 0.1048	872.95	27.91
298.15 K, x2 = 0.1518	878.8	–
298.15 K, x2 = 0.1998	885.1	27.6
298.15 K, x2 = 0.2491	891.85	–
298.15 K, x2 = 0.3001	899.28	27.43
298.15 K, x2 = 0.3496	906.77	–
298.15 K, x2 = 0.3999	–	27.32
298.15 K, x2 = 0.4001	914.84	–
298.15 K, x2 = 0.4499	923.32	–
298.15 K, x2 = 0.4999	932.32	27.34
298.15 K, x2 = 0.5508	942.03	–
298.15 K, x2 = 0.5977	951.57	–
298.15 K, x2 = 0.6488	962.47	–
298.15 K, x2 = 0.7	974.17	–
298.15 K, x2 = 0.7514	986.83	–
298.15 K, x2 = 0.7999	999.6	–
298.15 K, x2 = 0.85	1013.67	–
298.15 K, x2 = 0.8999	1028.84	–
298.15 K, x2 = 0.9499	1045.18	–
313.15 K, x2 = 0	848.73	26.82
313.15 K, x2 = 0.0505	854.19	–
313.15 K, x2 = 0.1009	–	26.42
313.15 K, x2 = 0.1046	860.31	–
313.15 K, x2 = 0.15	865.69	–
313.15 K, x2 = 0.1994	–	26.04
313.15 K, x2 = 0.2007	872.13	–
313.15 K, x2 = 0.2489	878.45	–
313.15 K, x2 = 0.2985	885.42	–
313.15 K, x2 = 0.2996	–	25.8
313.15 K, x2 = 0.35	892.95	–
313.15 K, x2 = 0.3983	900.54	–
313.15 K, x2 = 0.4016	–	25.63
313.15 K, x2 = 0.4498	908.93	–
313.15 K, x2 = 0.5001	917.76	–
313.15 K, x2 = 0.5004	–	25.55
313.15 K, x2 = 0.5492	926.76	–
313.15 K, x2 = 0.5999	936.76	–
313.15 K, x2 = 0.6488	946.86	–
313.15 K, x2 = 0.6992	958.18	–
313.15 K, x2 = 0.7489	969.98	–
313.15 K, x2 = 0.7995	982.91	–
313.15 K, x2 = 0.8479	996.11	–
313.15 K, x2 = 0.8997	1011.33	–
313.15 K, x2 = 0.9501	1027.37	–

COC(=O)OC [dimethyl carbonate]
[1]
Details	mass density [kg/m3]
298.15 K	1062.97
313.15 K	1044.63
